This note sets out measurements from ChEMBL document CHEMBL4138237, “Activation of anti-oxidant Nrf2 signaling by enone analogues of curcumin” (Eur J Med Chem, 2018).

For data set [1], the target named is Luciferin 4-monooxygenase (Photinus pyralis, UniProt P08659). The data set is described as follows: Effect on firefly luciferase activity expressed in human HepG2 cells at low concentration after 5 hrs by luminescence assay. The class given is ADME, cell-based. The settings on record: hepg2, 5 h.
Chain of Luciferin 4-monooxygenase (P08659 whole entry): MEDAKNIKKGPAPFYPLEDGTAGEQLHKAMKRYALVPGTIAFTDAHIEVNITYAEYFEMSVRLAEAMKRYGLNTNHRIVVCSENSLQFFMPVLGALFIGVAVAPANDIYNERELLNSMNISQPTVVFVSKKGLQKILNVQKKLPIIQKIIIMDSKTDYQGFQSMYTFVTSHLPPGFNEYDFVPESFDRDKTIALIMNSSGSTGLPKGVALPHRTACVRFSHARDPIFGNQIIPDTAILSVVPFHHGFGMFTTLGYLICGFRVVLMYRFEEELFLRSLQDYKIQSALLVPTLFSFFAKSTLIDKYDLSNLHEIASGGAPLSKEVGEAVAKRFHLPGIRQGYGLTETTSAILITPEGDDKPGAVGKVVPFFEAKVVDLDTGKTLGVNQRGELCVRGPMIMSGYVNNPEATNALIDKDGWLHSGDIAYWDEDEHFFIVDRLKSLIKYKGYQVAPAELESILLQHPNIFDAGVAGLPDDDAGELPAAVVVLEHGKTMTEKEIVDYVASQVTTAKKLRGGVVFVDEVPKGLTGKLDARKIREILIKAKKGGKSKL
For data set [2], the target named is T1, Nuclear factor erythroid 2-related factor 2 (Homo sapiens) (UniProt Q16236).
T1 sequence (whole entry): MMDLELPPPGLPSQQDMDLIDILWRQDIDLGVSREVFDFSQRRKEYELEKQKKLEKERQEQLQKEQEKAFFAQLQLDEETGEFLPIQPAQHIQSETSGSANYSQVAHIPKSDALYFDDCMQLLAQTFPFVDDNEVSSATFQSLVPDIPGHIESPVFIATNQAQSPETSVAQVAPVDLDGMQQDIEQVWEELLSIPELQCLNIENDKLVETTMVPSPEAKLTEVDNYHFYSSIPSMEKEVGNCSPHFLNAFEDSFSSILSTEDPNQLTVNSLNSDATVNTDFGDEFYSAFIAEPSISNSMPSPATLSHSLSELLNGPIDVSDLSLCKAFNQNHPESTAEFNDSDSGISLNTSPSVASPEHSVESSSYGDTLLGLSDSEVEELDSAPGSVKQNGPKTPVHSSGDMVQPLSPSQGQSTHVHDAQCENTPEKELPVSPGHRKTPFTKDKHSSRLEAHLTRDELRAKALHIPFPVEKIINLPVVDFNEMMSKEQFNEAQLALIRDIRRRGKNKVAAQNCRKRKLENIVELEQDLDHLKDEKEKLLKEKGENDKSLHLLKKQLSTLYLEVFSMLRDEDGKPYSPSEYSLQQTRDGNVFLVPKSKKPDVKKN
Description: Activation of Nrf2 (unknown origin) expressed in human HepG2 cells at 15 uM after 5 hrs by ARE-driven luciferase reporter gene assay relative to control. Type of data set: cell-based. (In general: Reporter assays use an easily measured gene product as a stand-in for the process of interest.)

The source made the active and inactive calls.

In the case of `O=C(/C=C/c1cccc(O)c1)CC(=O)/C=C/c1cccc(O)c1`, in data set [1], the Activity result is recorded as “Non-Toxic”. For the same molecule, the outcome in data set [2] was Active.

Take `O=C(/C=C/c1ccc(Cl)cc1)/C=C/c1ccc(Cl)cc1`: the Activity entry in data set [1] is on record as “Non-Toxic”. For the same molecule, the result in data set [2] was inactive.

With `COc1cc(/C=C2\CCC/C(=C\c3cc(OC)cc(OC)c3)C2=O)cc(OC)c1`, the Activity entry in data set [1] is given as “Non-Toxic”. In data set [2], this molecule gave a fold change (FC) of 22.1.

As to `O=C(/C=C/c1ccccc1)C(Cc1ccccc1)(Cc1ccccc1)C(=O)/C=C/c1ccccc1`, in data set [1], the Activity result was “Non-Toxic”. For the same molecule, in data set [2], the outcome was Active.

As for `COc1cc(/C=C/C(=O)/C=C/c2ccc(O)c(OC)c2)ccc1O`, the Activity entry in data set [1] is “Non-Toxic”. In data set [2], this molecule returned a fold change (FC) of 25.1.

Regarding `COc1ccc(/C=C/C(=O)CC(=O)/C=C/c2ccc(OC)c(O)c2)cc1O`, in data set [1], the Activity entry is recorded as “Non-Toxic”. The result in data set [2] was Active.

In the case of `O=C(O)c1ccc(/C=C/C(=O)c2ccccc2)cc1`, in data set [1], the Activity entry is “Non-Toxic”. In addition, in data set [2], the result was Active.

For the molecule `COc1ccc(/C=C/C(=O)CC(=O)/C=C/c2ccc(OC)cc2OC)c(OC)c1`, the Activity result in data set [1] was “Non-Toxic”. The result in data set [2] was Active.

For the molecule `Cc1cccc(/C=C2\CN(C)C/C(=C\c3cccc(C)c3)C2=O)c1`, in data set [1], the Activity entry is “Non-Toxic”. The outcome in data set [2] was Active.

Turning to `COc1cc(OC)c(OC)cc1/C=C/C(=O)/C=C/c1cc(OC)c(OC)cc1OC`, the Activity result in data set [1] is “Non-Toxic”. The molecule further came in with a fold change (FC) in data set [2] of 18.2.

With `O=C(CCc1ccccc1)CCc1ccccc1`, the Activity entry in data set [1] is recorded as “Non-Toxic”. Also, in data set [2], the outcome was inactive.

As to `COc1cc(/C=C2\CN(C)C/C(=C\c3cc(OC)c(OC)c(OC)c3)C2=O)cc(OC)c1OC`, the Activity entry in data set [1] is given as “Non-Toxic”. Besides, the outcome in data set [2] was inactive.

Turning to `O=C(/C=C/c1ccccc1Cl)/C=C/c1ccccc1Cl`, in data set [1], the Activity result is listed as “Non-Toxic”. Further, in data set [2], the result was Active.

In the case of `Cc1ccc(C(=O)/C=C/c2ccccc2)c(C)c1`, the Activity entry in data set [1] is “Non-Toxic”. The same molecule gave a fold change (FC) in data set [2] of 29.9.

Consider `CN(C)c1ccc(/C=C/C(=O)CC(=O)/C=C/c2ccc(N(C)C)cc2)cc1`, for which the Activity entry in data set [1] is recorded as “Non-Toxic”. For the same molecule, the outcome in data set [2] was inactive.

On to `COc1ccccc1/C=C1\CCC/C(=C\c2ccccc2OC)C1=O`, for which the Activity entry in data set [1] was “Non-Toxic”. Also, the result in data set [2] was inactive.

As to `O=C(/C=C/c1ccc(O)cc1)CC(=O)/C=C/c1ccc(O)cc1` [BISDEMETHOXYCURCUMIN], the Activity entry in data set [1] is “Non-Toxic”. Moreover, the result in data set [2] was Active.
